Results: the NIST ThermoML archive (doi:10.1016/j.fluid.2012.12.014)
± gives the expanded uncertainty stated by the source.

Conditions: Liquid, Closed cell (Static) method

- vapor or sublimation pressure (383.2 K): 142.5 ± 2.1 kPa
- vapor or sublimation pressure (393.2 K): 198.7 ± 2.2 kPa
- vapor or sublimation pressure (403.2 K): 270 ± 2.5 kPa
- vapor or sublimation pressure (413.2 K): 361.7 ± 2.8 kPa
- vapor or sublimation pressure (423.2 K): 476.1 ± 3 kPa
SMILES: O [water]
